Data reported in the supplement of paper PMC10627819.

Assays:
[1] = tested on: S. pneumoniae D39V; assay: fitness (endpoint OD595 vs no drug) (fraction); higher = more growth
In short: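 In 384-well plates at 37 °C, cultures began at OD595 0.01 in 30 µl, with 55 µl used for S. pneumoniae. OD595 readings every 30 min for 14 h were corrected by the first reading. Fitness divides the stationary-phase transition optical density by the robust mean of no-drug control wells. The result is capped at 1.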

[2] = tested on: B. subtilis 168; assay: Bliss interaction score (quartile over a dose matrix) (fitness difference); higher = more antagonism (negative = synergy)
In short: (§1)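 Fitness is OD595 at stationary-phase entry relative to the plate's robust no-drug mean, capped at 1. Single-drug fitness was inferred from combinations. The Bliss score is observed minus product-expected fitness, summarised by quartiles over technical, biological and donor/recipient replicates.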

[3] = tested on: S. aureus DSM 20231; assay: as above
In short: as §1

[4] = tested on: S. aureus Newman; assay: as above
In short: as §1

[5] = tested on: S. pneumoniae D39V; assay: as above
In short: as §1
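Wherever Bliss interaction score (quartile over a dose matrix) is given: first quartile when negative (synergy) and third quartile when positive (antagonism).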

Structure (SMILES) | Bliss interaction score [2] | Bliss interaction score [3] | Bliss interaction score [4] | Bliss interaction score [5] | further results
C[C@H]1c2cccc(O)c2C(=O)C2=C(O)[C@]3(O)C(=O)C(C(N)=O)=C(O)[C@@H](N(C)C)[C@@H]3[C@@H](O)[C@@H]21 [Doxycycline] + CN[C@H](CC(C)C)C(=O)N[C@H]1C(=O)N[C@@H](CC(N)=O)C(=O)N[C@H]2C(=O)N[C@H]3C(=O)N[C@H](C(=O)N[C@H](C(=O)O)c4cc(O)cc(O)c4-c4cc3ccc4O)[C@H](O)c3ccc(c(Cl)c3)Oc3cc2cc(c3O[C@@H]2O[C@H](CO)[C@@H](O)[C@H](O)[C@H]2O[C@H]2C[C@](C)(N)[C@H](O)[C@H](C)O2)Oc2ccc(cc2Cl)[C@H]1O [Vancomycin] | 0.0535 | 0.0785 | 0.0371 | 0.101 | fitness ([1]; first compound 0.003875 µg/mL, partner 0.125 µg/mL, one replicate): 0.882; fitness ([1]; first compound 0.003875 µg/mL, partner 0.25 µg/mL, one replicate): 0.29; fitness ([1]; first compound 0.003875 µg/mL, partner 0.5 µg/mL, one replicate): 0.0216; fitness ([1]; first compound 0.00775 µg/mL, partner 0.125 µg/mL, one replicate): 0.989; fitness ([1]; first compound 0.00775 µg/mL, partner 0.25 µg/mL, one replicate): 0.571; fitness ([1]; first compound 0.00775 µg/mL, partner 0.5 µg/mL, one replicate): 0.0253; fitness ([1]; first compound 0.0155 µg/mL, partner 0.03125 µg/mL): 0.903; fitness ([1]; first compound 0.0155 µg/mL, partner 0.0625 µg/mL): 0.876; fitness ([1]; first compound 0.0155 µg/mL, partner 0.125 µg/mL): 0.913; fitness ([1]; first compound 0.0155 µg/mL, partner 0.25 µg/mL): 0.802; fitness ([1]; first compound 0.0155 µg/mL, partner 0.5 µg/mL): 0.105; fitness ([1]; first compound 0.031 µg/mL, partner 0.03125 µg/mL): 0.838; fitness ([1]; first compound 0.031 µg/mL, partner 0.0625 µg/mL): 0.79; fitness ([1]; first compound 0.031 µg/mL, partner 0.125 µg/mL): 0.767; fitness ([1]; first compound 0.031 µg/mL, partner 0.25 µg/mL, one replicate): 0.753; fitness ([1]; first compound 0.031 µg/mL, partner 0.5 µg/mL, one replicate): 0.128; fitness ([1]; first compound 0.062 µg/mL, partner 0.03125 µg/mL): 0.84; fitness ([1]; first compound 0.062 µg/mL, partner 0.0625 µg/mL): 0.783; fitness ([1]; first compound 0.062 µg/mL, partner 0.25 µg/mL, one replicate): 0.629; fitness ([1]; first compound 0.062 µg/mL, partner 0.5 µg/mL, one replicate): 0.0893
C[C@@H]1O[C@@H]1P(=O)(O)O [Fosfomycin] + C[C@@H](O)[C@H]1C(=O)N2C(C(=O)O)=C(SCCNC=N)C[C@H]12 [Imipenem] | 0.0674 | -0.0911 | 0.0199 | 0.0339 | fitness ([1]; first compound 1.25 µg/mL, partner 0.005 µg/mL): 0.965; fitness ([1]; first compound 1.25 µg/mL, partner 0.0065 µg/mL): 0.922; fitness ([1]; first compound 1.25 µg/mL, partner 0.01 µg/mL): 0.944; fitness ([1]; first compound 1.25 µg/mL, partner 0.013 µg/mL): 0.925; fitness ([1]; first compound 1.25 µg/mL, partner 0.02 µg/mL): 0.92; fitness ([1]; first compound 1.25 µg/mL, partner 0.026 µg/mL): 0.901; fitness ([1]; first compound 2.5 µg/mL, partner 0.005 µg/mL): 0.911; fitness ([1]; first compound 2.5 µg/mL, partner 0.0065 µg/mL): 0.87; fitness ([1]; first compound 2.5 µg/mL, partner 0.01 µg/mL): 0.887; fitness ([1]; first compound 2.5 µg/mL, partner 0.013 µg/mL): 0.881; fitness ([1]; first compound 2.5 µg/mL, partner 0.02 µg/mL): 0.911; fitness ([1]; first compound 2.5 µg/mL, partner 0.026 µg/mL): 0.814; fitness ([1]; first compound 5 µg/mL, partner 0.005 µg/mL): 0.797; fitness ([1]; first compound 5 µg/mL, partner 0.0065 µg/mL): 0.608; fitness ([1]; first compound 5 µg/mL, partner 0.01 µg/mL): 0.786; fitness ([1]; first compound 5 µg/mL, partner 0.013 µg/mL): 0.726; fitness ([1]; first compound 5 µg/mL, partner 0.02 µg/mL): 0.747; fitness ([1]; first compound 5 µg/mL, partner 0.026 µg/mL): 0.74
CN(C)[C@@H]1C(O)=C(C(N)=O)C(=O)[C@@]2(O)C(O)=C3C(=O)c4c(O)ccc(Cl)c4[C@@](C)(O)[C@H]3C[C@@H]12 [Clortetracycline] + CCC(C)C1C(=O)NC(=C)C(=O)NC(C(=O)NC(CSCC(C(=O)N1)NC(=O)/C(=C/C)/NC(=O)C(C(C)CC)N)C(=O)NC2C(SCC(NC(=O)CNC(=O)C3CCCN3C2=O)C(=O)NC(CCCCN)C(=O)NC4C(SCC(NC(=O)CNC(=O)C(NC(=O)C(NC(=O)C(NC(=O)CNC4=O)C)CC(C)C)CCSC)C(=O)NC(CC(=O)N)C(=O)NC(CCSC)C(=O)NC(CCCCN)C(=O)NC5C(SCC6C(=O)NC(C(=O)NC(CSC(C(C(=O)N6)NC(=O)C(NC5=O)C)C)C(=O)NC(CO)C(=O)NC(C(C)CC)C(=O)NC(CC7=CN=CN7)C(=O)NC(C(C)C)C(=O)NC(=C)C(=O)NC(CCCCN)C(=O)O)CC8=CN=CN8)C)C)C)CC(C)C [Nisin] |  |  |  |  | Bliss interaction score ([2]; main component drawn): 0.0718; Bliss interaction score ([3]; main component drawn): 0.0616; Bliss interaction score ([4]; main component drawn): 0.0486; Bliss interaction score ([5]; main component drawn): -0.122
CC1(C)S[C@@H]2[C@H](NC(=O)Cc3ccccc3)C(=O)N2[C@H]1C(=O)O [PenicillinG] + C/C(=C\C(=O)OCCCCCCCCC(=O)O)C[C@@H]1OC[C@H](C[C@@H]2O[C@H]2[C@@H](C)[C@H](C)O)[C@@H](O)[C@H]1O [Pseudomonic acid] | 0.0659 | 0.0362 | 0.0196 | 0.0842 | 
CC(=O)Oc1ccccc1C(=O)O [Acetylsalicylicacid] + C[C@H]1c2cccc(O)c2C(=O)C2=C(O)[C@]3(O)C(=O)C(C(N)=O)=C(O)[C@@H](N(C)C)[C@@H]3[C@@H](O)[C@@H]21 [Doxycycline] | -0.164 | -0.0455 | 0.0416 | 0.1 | 
CN(C)[C@@H]1C(O)=C(C(N)=O)C(=O)[C@@]2(O)C(O)=C3C(=O)c4c(O)ccc(Cl)c4[C@@](C)(O)[C@H]3C[C@@H]12 [Clortetracycline] + C[C@@H]1O[C@@H]1P(=O)(O)O [Fosfomycin] | 0.0913 | -0.158 | -0.161 | 0.0517 | 
N#CC(C#N)=NNc1cccc(Cl)c1 [CCCP] + CC(=O)O[C@H]1C[C@@]2(C)[C@@H](C[C@@H](O)[C@H]3[C@@]4(C)CC[C@@H](O)[C@@H](C)[C@@H]4CC[C@@]32C)/C1=C(\CCC=C(C)C)C(=O)O [Fusidic acid] | -0.18 | 0.0429 | 0.0673 | 0.122 | 
CC(=O)Oc1ccccc1C(=O)O [Acetylsalicylicacid] + CN[C@@H]1[C@H](O)[C@H](NC)[C@H]2O[C@@]3(O)C(=O)C[C@@H](C)O[C@H]3O[C@@H]2[C@H]1O [Spectinomycin] | 0.137 | -0.0696 | 0.0859 | -0.0679 | 
CC(=O)Oc1ccccc1C(=O)O [Acetylsalicylicacid] + CC[C@H]1OC(=O)[C@H](C)[C@@H](O[C@H]2C[C@@](C)(OC)[C@@H](O)[C@H](C)O2)[C@H](C)[C@@H](O[C@@H]2O[C@H](C)C[C@H](N(C)C)[C@H]2O)[C@](C)(OC)C[C@@H](C)C(=O)[C@H](C)[C@@H](O)[C@]1(C)O [Clarithromycin] | 0.322 | 0.109 | 0.151 | 0.0695 | 
N#CC(C#N)=NNc1cccc(Cl)c1 [CCCP] + CC1(C)S[C@@H]2[C@H](NC(=O)Cc3ccccc3)C(=O)N2[C@H]1C(=O)O [PenicillinG] | 0.0568 | 0.0402 | -0.0514 | 0.0767 | 
CC(=O)Oc1ccccc1C(=O)O [Acetylsalicylicacid] + C[C@H]1COc2c(N3CCN(C)CC3)c(F)cc3c(=O)c(C(=O)O)cn1c23 [Levofloxacin] | 0.12 | 0.0854 | 0.12 | 0.142 | 
CO/N=C(\C(=O)N[C@@H]1C(=O)N2C(C(=O)O)=C(COC(C)=O)CS[C@H]12)c1csc(N)n1 [Cefotaxime] + CO[C@@]12[C@H](COC(N)=O)C3=C(C(=O)C(C)=C(N)C3=O)N1C[C@@H]1N[C@@H]12 [MitomycinC] | -0.135 | 0.0387 | 0.0256 | 0.118 | 
Cc1ncc([N+](=O)[O-])n1CCO [Metronidazole] + Oc1cc(Cl)ccc1Oc1ccc(Cl)cc1Cl [Triclosan] | 0.0396 | 0.0778 | 0.0457 | 0.0696 | 
CC(=O)Oc1ccccc1C(=O)O [Acetylsalicylicacid] + Cc1onc(-c2ccccc2)c1C(=O)N[C@@H]1C(=O)N2[C@@H]1SC(C)(C)[C@@H]2C(=O)O [Oxacillin] | 0.0506 | 0.113 | 0.0916 | 0.0623 | 
